Values of other authors in US11103503B2, “Pharmaceutical compositions of Lurasidone” (SLAYBACK PHARMA LLC, priority 2019, dated 2021).

Experiments:
[1] = fed state

SMILES: O=C1[C@@H]2[C@H]3CC[C@H](C3)[C@@H]2C(=O)N1C[C@@H]1CCCC[C@H]1CN1CCN(c2nsc3ccccc23)CC1 [Lurasidone, N-4-4-(1,2-benzisothiazol-3-yl)-1-piperazinyl-(2R,3R)-2,3-tetramethylene-butyl-(1R,2S,3R,4'S)-2,3-bicyclo[2.2.1]heptanedicarboxyimide]
- administered dose absorbed [1]: 9-19%
- solubility in water: very slightly soluble
